≈ marks a conversion by molar mass, not a printed value. Square brackets hold non-standard residues; d marks the D form. Ends that are not written are not given here. Peptide text beside a SMILES is read from it.
Assays:
[1] = system: Escherichia coli ATCC 8739; assay type: cell-based; settings: ATCC 8739
Procedure: (§1) The antimicrobial activities of the peptides were evaluated by determining their minimal inhibitory concentration (MIC) and minimal bactericidal concentration (MBC) values following reported protocols [20]. The tested microorganisms included seven Gram-negative bacterial strains (Escherichia coli ATCC 8739, E. coli ATCC-BAA 2340, E. coli NCTC 13846, Klebsiella pneumoniae ATCC 43816, K. pneumoniae ATCC BAA-2342, Pseudomonas aeruginosa ATCC 9027, Acinetobacter baumannii ATCC BAA-747), three Gram-positive bacterial strains (Staphylococcus aureus ATCC 6538, Enterococcus faecalis NCTC 12697, MRSA NCTC 12493, and the fungal strain Candida albicans ATCC 10231. For the assay, each bacterial strain was cultured overnight at 37 °C in 100 mL of medium in a flask. The cultures were then subcultured to reach the logarithmic growth phase and diluted to 5 × 10^5 CFU/mL. Peptide samples were serially diluted two-fold in microplates, with concentrations ranging from 128 μM to 1 μM. The diluted bacterial suspensions were mixed with the peptide solutions and incubated overnight at 37 °C. The MIC values were determined by measuring the absorbance of each well using a Synergy HT plate reader (Agilent, Cheshire, UK). For MBC determination, aliquots from wells showing no visible growth were inoculated onto agar plates to assess bacterial viability. Each experiment was repeated independently three times and conducted in three independent replicates.

[2] = system: E. coli ATCC BAA-2340; assay type: cell-based, Escherichia coli
[3] = system: E. coli NCTC 13846; assay type: cell-based, Escherichia coli
[4] = system: Klebsiella pneumoniae ATCC 43816; assay type: cell-based; settings: ATCC 43816
Procedure: as §1

[5] = system: K. pneumoniae ATCC BAA-2342; assay type: cell-based, Klebsiella pneumoniae
[6] = system: Pseudomonas aeruginosa ATCC 9027; assay type: cell-based
Procedure: as §1

[7] = system: Acinetobacter baumannii ATCC BAA-747; assay type: cell-based; settings: ATCC BAA-747
[8] = system: Staphylococcus aureus ATCC 6538; assay type: cell-based; settings: ATCC 6538
Procedure: as §1

[9] = system: Enterococcus faecalis NCTC 12697; assay type: cell-based; settings: NCTC 12697
[10] = system: MRSA NCTC 12493; assay type: cell-based, Staphylococcus aureus
Procedure: as §1

[11] = system: horse red blood cells; assay: Haemolysis assay; assay type: cell-based; settings: concentration inducing 10% haemolysis of horse erythrocytes; 4% (v/v) in PBS, 2 h, 37 °C, absorbance 570 nm; no haemolysis at maximum testing concentration (128 μM) recorded as 256 μM
Procedure: The peptide cytotoxicity against mammalian erythrocytes was evaluated by haemolysis assay on horse red blood cells (E&O Laboratories Ltd., Falkirk, UK). Fresh horse blood was washed three times with PBS and resuspended to a final concentration of 4% (v/v) in PBS. The diluted blood suspension was then mixed with peptide solutions at varying concentrations and incubated for 2 h at 37 °C. Red blood cell suspensions treated with 0.1% Triton X-100 and PBS were used as controls. The Triton X-100-treated suspension was the positive control (for 100% haemolysis), while the PBS-treated suspension was the blank control. Following incubation, the mixtures were centrifuged at 1000× g for 10 min to separate erythrocytes from the supernatant. The absorbance of the supernatants was detected at 570 nm. The percentage haemolysis was calculated by following the equationPercentage Haemolysis = (AbsSample − AbsBlank)/(AbsPositive − AbsBlank) × 100%

[12] = system: Gram-negative bacteria; assay: Geometric mean MIC and therapeutic index, Gram-negative; assay type: cell-based; settings: geometric mean of MICs
[13] = system: Gram-positive bacteria; assay: Geometric mean MIC and therapeutic index, Gram-positive; assay type: cell-based; settings: geometric mean of MICs
[14] = system: E. coli (ATCC-BAA 2340); assay type: cell-based, Escherichia coli; settings: ATCC-BAA 2340
Procedure: The peptide sensitivity was determined in different salt- and serum-containing environments. Bacterial strains were prepared following the MIC detection protocol described previously. To evaluate peptide sensitivity under physiological conditions, various concentrations of salt ions (150 mM NaCl, 4.5 mM KCl, 2 mM CaCl2, 1 mM MgCl2, 8 µM ZnCl2, 6 µM NH4Cl, or 4 µM FeCl3) and serum (10% FBS) were prepared in McCartney bottles prior to the addition of bacterial suspensions. The subcultured bacterial suspensions were then introduced to these modified media conditions. For MIC determination, the treated bacterial suspensions were diluted and dispensed into 96-well plates containing peptide solutions at graded concentrations. This assay allowed for the detection of potential alterations in MIC values, serving as an indicator of peptide sensitivity under different physiological conditions. All experiments were independently repeated three times, each with three replicates.

Row | Compound | MBC, E. coli (ATCC 8739) [1] [µM] | MIC, E. coli (ATCC 8739) [1] [µM] | MBC, E. coli (ATCC BAA-2340) [2] [µM] | MIC, E. coli (ATCC BAA-2340) [2] [µM] | MBC, E. coli (NCTC 13846) [3] [µM] | MIC, E. coli (NCTC 13846) [3] [µM] | MBC, K. pneumoniae (ATCC 43816) [4] [µM] | MIC, K. pneumoniae (ATCC 43816) [4] [µM] | MBC, K. pneumoniae (ATCC BAA-2342) [5] [µM] | MIC, K. pneumoniae (ATCC BAA-2342) [5] [µM] | MBC, P. aeruginosa (ATCC 9027) [6] | MIC, P. aeruginosa (ATCC 9027) [6] | MBC, A. baumannii (ATCC BAA-747) [7] [µM] | MIC, A. baumannii (ATCC BAA-747) [7] [µM] | MBC, S. aureus (ATCC 6538) [8] [µM] | MIC, S. aureus (ATCC 6538) [8] [µM] | MBC, E. faecalis (NCTC 12697) [9] [µM] | MIC, E. faecalis (NCTC 12697) [9] [µM] | MBC, MRSA (NCTC 12493) [10] [µM] | MIC, MRSA (NCTC 12493) [10] [µM] | also measured
1 | CC[C@H](C)[C@H](NC(=O)[C@H](CCCCN)NC(=O)[C@@H]1CCCN1C(=O)[C@@H](CC(C)C)NC(=O)[C@H](C)NC(=O)[C@H](CCCCN)NC(=O)[C@@H]1CCCN1C(=O)[C@@H](NC(=O)[C@@H](NC(=O)[C@H](CC(C)C)NC(=O)[C@H](CCCCN)NC(=O)[C@H](CC(C)C)NC(=O)[C@H](CO)NC(=O)CNC(=O)[C@H](CC(C)C)NC(=O)[C@@H](NC(=O)[C@H](CO)NC(=O)[C@H](CC(C)C)NC(=O)[C@H](CC(C)C)NC(=O)CN)C(C)C)[C@@H](C)CC)C(C)C)C(=O)N[C@@H](C)C(=O)N[C@@H](CCC(=O)O)C(=O)N[C@@H](CCCCN)C(=O)N[C@@H](CC(C)C)C(N)=O [Caerin 1.1-LC PKAL(D)P] (H-GLLSVLGSLKLIVPKA[dL]PKIAEKL-NH2; N-terminus assumed) | 2 (≈ 5 µg/mL) | 2 (≈ 5 µg/mL) | 2 (≈ 5 µg/mL) | 2 (≈ 5 µg/mL) | 8 (≈ 20 µg/mL) | 8 (≈ 20 µg/mL) | 4 (≈ 10 µg/mL) | 4 (≈ 10 µg/mL) | 4 (≈ 10 µg/mL) | 4 (≈ 10 µg/mL) | 4/4 µM | 4/4 µM | 32 (≈ 80 µg/mL) | 32 (≈ 80 µg/mL) | 32 (≈ 80 µg/mL) | 32 (≈ 80 µg/mL) | >128 | >128 | 8 (≈ 20 µg/mL) | 4 (≈ 10 µg/mL) | HC10 [11]: 43.4 µM; GM MIC Gram-Negative [12]: 4.87 µM; GM MIC Gram-Positive [13]: 64 µM; MIC, Ca^2+ [14]: 128 µM (≈ 320 µg/mL); MIC, Control [14]: 2 µM (≈ 5 µg/mL); MIC, FBS [14]: 16 µM (≈ 40 µg/mL); MIC, Fe^3+ [14]: 2 µM (≈ 5 µg/mL); MIC, K^+ [14]: 2 µM (≈ 5 µg/mL); MIC, Mg^2+ [14]: 16 µM (≈ 40 µg/mL); MIC, NH4^+ [14]: 2 µM (≈ 5 µg/mL); MIC, Na^+ [14]: 4 µM (≈ 10 µg/mL)
2 | GLLSVLGSLKKIVPHVVPWIAKKL-NH2 [Caerin 1.1-LC 11K.12K.19W] | 2 | 2 | 2 | 2 | 4 | 2 | 4 | 4 | 4 | 4 | 4/4 µM | 4/4 µM | 4 | 4 | 2 | 2 | 32 | 16 | 2 | 2 | HC10 [11]: 10.5 µM; GM MIC Gram-Negative [12]: 4 µM; GM MIC Gram-Positive [13]: 2.97 µM; MIC, Ca^2+ [14]: 8 µM; MIC, Control [14]: 4 µM; MIC, FBS [14]: 8 µM; MIC, Fe^3+ [14]: 4 µM; MIC, K^+ [14]: 4 µM; MIC, Mg^2+ [14]: 4 µM; MIC, NH4^+ [14]: 4 µM; MIC, Na^+ [14]: 4 µM
3 | GLLSVLGSLKLIVPHWWPLIAEKL-NH2 [Caerin 1.1-LC PHWWP] | 64 | 32 | 32 | 16 | 128 | 64 | >128 | >128 | >128 | >128 | >128 µM | >128 µM | >128 | >128 | >128 | >128 | >128 | >128 | >128 | >128 | HC10 [11]: 256 µM; GM MIC Gram-Negative [12]: 105 µM; GM MIC Gram-Positive [13]: 256 µM
